Patent US20200068890A1 (Person to Whom the Inventor is Obligated to Assign, priority 2017, published 2020)
Read-outs that look alike come from different tables or passages of the source.

What was measured:
Type in all cases: cell-based
[1] = system: Acinetobacter baumannii 17978; assay: Broth microdilution MIC
Summary of the method: (§1)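 Broth microdilution per EUCAST guidelines: overnight TSB cultures (37° C) diluted to 1×10^6 bacteria/ml (OD600=0.01) in TSB, exposed to compounds at various concentrations for 20 hrs at 37° C. Growth read as absorbance at 600 nm; MIC taken as lowest concentration inhibiting visible growth.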

[2] = system: Acinetobacter baumannii AYE; assay: Broth microdilution MIC
Summary of the method: as §1

EMRSA-16 = assay: Broth microdilution MIC
Summary of the method: as §1

[3] = system: Enterococcus faecalis 12201; assay: Broth microdilution MIC
Summary of the method: as §1

[4] = system: Enterococcus faecalis 775; assay: Broth microdilution MIC
Summary of the method: as §1

[5] = system: Enterococcus faecium 12204; assay: Broth microdilution MIC
Summary of the method: as §1

[6] = system: Escherichia coli NCTC12923; assay: Broth microdilution MIC
Summary of the method: as §1

[7] = system: Klebsiella pneumoniae 13368; assay: Broth microdilution MIC
Summary of the method: as §1

Klebsiella pneumoniae M6 = assay: Broth microdilution MIC
Summary of the method: as §1

MSSA 9144 = assay: Broth microdilution MIC; details: Staphylococcus aureus
Summary of the method: as §1

[8] = system: Pseudomonas aeruginosa 13437; assay: Broth microdilution MIC
Summary of the method: as §1

[9] = system: Pseudomonas aeruginosa PA01; assay: Broth microdilution MIC
Summary of the method: as §1

[10] = system: Gram-positive and Gram-negative bacterial species; assay: Broth microdilution MIC, panel summary; details: read-out: MIC values
Experimental: Assays were carried out by a broth microdilution method using a 96-well plate according to guidelines defined by the European Committee on Antimicrobial Susceptibility Testing as described here. Overnight cultures of strains were grown in tryptic soy broth (TSB) at 37° C. The overnight cultures were diluted to a concentration of 1×10^6 bacteria/ml (OD600=0.01) in TSB media. To each well on 96 well plates, 100 μl of bacterially infected media at a concentration of 1×10^6/ml and compounds at various concentrations were added. An uninfected control (i.e. no bacteria) was also included. The plates were incubated at 37° C. wrapped in parafilm for 20 hrs. The growth was assessed by measuring the absorbance at 600 nm. The minimum inhibitory concentration (MIC) was determined to be the lowest concentration of compound that inhibits visible bacterial growth.

[11] = Acinetobacter baumannii 17978, replicate 1, read-out: MIC #1
[12] = Acinetobacter baumannii 17978, replicate 2, read-out: MIC #2
[13] = Acinetobacter baumannii 17978, replicate 3, read-out: MIC #3
[14] = EMRSA-16, replicate 1, read-out: MIC #1
[15] = EMRSA-16, replicate 2, read-out: MIC #2
[16] = EMRSA-16, replicate 3, read-out: MIC #3
[17] = Enterococcus faecalis 12201, replicate 1, read-out: MIC #1
[18] = Enterococcus faecalis 12201, replicate 2, read-out: MIC #2
[19] = Enterococcus faecalis 12201, replicate 3, read-out: MIC #3
[20] = Enterococcus faecalis 775, replicate 1, read-out: MIC #1
[21] = Enterococcus faecalis 775, replicate 2, read-out: MIC #2
[22] = Enterococcus faecalis 775, replicate 3, read-out: MIC #3
[23] = Enterococcus faecium 12204, replicate 1, read-out: MIC #1
[24] = Enterococcus faecium 12204, replicate 2, read-out: MIC #2
[25] = Enterococcus faecium 12204, replicate 3, read-out: MIC #3
[26] = Escherichia coli NCTC12923, replicate 1, read-out: MIC #1
[27] = Escherichia coli NCTC12923, replicate 2, read-out: MIC #2
[28] = Escherichia coli NCTC12923, replicate 3, read-out: MIC #3
[29] = Klebsiella pneumoniae 13368, replicate 1, read-out: MIC #1
[30] = Klebsiella pneumoniae 13368, replicate 2, read-out: MIC #2
[31] = Klebsiella pneumoniae 13368, replicate 3, read-out: MIC #3
[32] = Klebsiella pneumoniae M6, replicate 1, read-out: MIC #1
[33] = Klebsiella pneumoniae M6, replicate 2, read-out: MIC #2
[34] = Klebsiella pneumoniae M6, replicate 3, read-out: MIC #3
[35] = MSSA 9144, replicate 1, read-out: MIC #1
[36] = MSSA 9144, replicate 2, read-out: MIC #2
[37] = MSSA 9144, replicate 3, read-out: MIC #3
[38] = Pseudomonas aeruginosa 13437, replicate 1, read-out: MIC #1
[39] = Pseudomonas aeruginosa 13437, replicate 2, read-out: MIC #2
[40] = Pseudomonas aeruginosa 13437, replicate 3, read-out: MIC #3
[41] = Pseudomonas aeruginosa PA01, replicate 1, read-out: MIC #1
[42] = Pseudomonas aeruginosa PA01, replicate 2, read-out: MIC #2
[43] = Pseudomonas aeruginosa PA01, replicate 3, read-out: MIC #3

Measured: MIC

COc1ccccc1/C=C1\SC(=O)N(CC(=O)O)C1=O [Compound 3, (Z)-2-(5-(2-Methoxybenzylidene)-2,4-dioxothiazolidin-3-yl)acetic Acid]
> 64 µg/mL: [1]; [11] | [1]; [12] | [1]; [13] | [2]; replicate 1, read-out: MIC #1 | [2]; replicate 2, read-out: MIC #2 | [2]; replicate 3, read-out: MIC #3 | EMRSA-16; [14] | EMRSA-16; [15] | EMRSA-16; [16] | [3]; [17] | [3]; [18] | [3]; [19] | [4]; [20] | [4]; [21] | [4]; [22] | [5]; [23] | [5]; [24] | [5]; [25] | [6]; [26] | [6]; [27] | [6]; [28] | [7]; [29] | [7]; [30] | [7]; [31] | Klebsiella pneumoniae M6; [32] | Klebsiella pneumoniae M6; [33] | Klebsiella pneumoniae M6; [34] | MSSA 9144; [35] | MSSA 9144; [36] | MSSA 9144; [37] | [8]; [38] | [8]; [39] | [8]; [40] | [9]; [41] | [9]; [42] | [9]; [43] | [10]

COc1ccc(/C=C2\SC(=O)N(CC(=O)O)C2=O)cc1 [Compound 5, (Z)-2-(5-(4-Methoxybenzylidene)-2,4-dioxothiazolidin-3-yl)acetic Acid]
> 64 µg/mL: [1]; [11] | [1]; [12] | [1]; [13] | [2]; replicate 1, read-out: MIC #1 | [2]; replicate 2, read-out: MIC #2 | [2]; replicate 3, read-out: MIC #3 | EMRSA-16; [14] | EMRSA-16; [15] | EMRSA-16; [16] | [3]; [17] | [3]; [18] | [3]; [19] | [4]; [20] | [4]; [21] | [4]; [22] | [5]; [23] | [5]; [24] | [5]; [25] | [6]; [26] | [6]; [27] | [6]; [28] | [7]; [29] | [7]; [30] | [7]; [31] | Klebsiella pneumoniae M6; [32] | Klebsiella pneumoniae M6; [33] | Klebsiella pneumoniae M6; [34] | MSSA 9144; [35] | MSSA 9144; [36] | MSSA 9144; [37] | [8]; [38] | [8]; [39] | [8]; [40] | [9]; [41] | [9]; [42] | [9]; [43]
